Test results as given in patent US8343983B2, “Substituted pyrazolo-pyrimidine compounds” (ArQule, Inc., priority 2009, dated 2013).
Where two headings read alike, the source gives them in different places.

Test system: cancer cells
Experiment: MTS assay: inhibition of cell growth (formazan absorbance at 492 nm after 72 hours with test compound)
Assay type: cell-based
Details: inhibition class
Experimental: Cells were maintained at 37° C., 5% CO2 in DMEM media supplemented with 1% fetal bovine serum, penicillin/streptomycin and fungizone (Invitrogen). Cells were seeded into 96-well tissue culture plates at 3000 per well and cultured at 37° C. for 18 hours. Test compounds were dissolved and diluted to 300× in DMSO then diluted 1:40 in DMEM. Cells were incubated with test compounds for 72 hours followed by incubation with tetrazolium compound (3-(4,5-dimethylthiazol-2-yl)-5-(3-carboxymethoxyphenyl)-2-(4-sulfophenyl)-2H-tetrazolium, inner salt; MTS) and the electron coupling reagent, phenazine methosulfate (PMS) for 4 hours. […] The ability of compounds to inhibit cell growth in this assay is correlated with the reduction of dehydrogenase enzyme activity found in metabolically active cells. The measurement of the absorbance of the formazan was assessed using an ENVISION™ (Perkin Elmer) microplate reader at 492 nm. The calculated IC50 value is the concentration of the test compound that causes a 50% decrease in the absorbance. […] A=>79% inhibition, B=>50 to 79% inhibition, C=<50% inhibition.

[1] = Homo sapiens, DLD-1 cells, read-out: DLD-1, MTS 72 hours at 10 uM
[2] = Homo sapiens, KATO III cells, read-out: KATO III, MTS 72 hours at 10 uM
[3] = Homo sapiens, MDA-MB-231 cells, read-out: MDA-MB-231, MTS 72 hours at 10 uM
[4] = Homo sapiens, NCI-H1299 cells, read-out: NCI-H1299, MTS 72 hours at 10 uM
[5] = Homo sapiens, PC-3 cells, read-out: PC-3, MTS 72 hours at 10 uM
[6] = PACA-2 cells, read-out: PACA-2, MTS 72 hours at 10 uM

Row | Structure (SMILES) | inhibition at 10 µM [1] | inhibition at 10 µM [2] | inhibition at 10 µM [3] | inhibition at 10 µM [4] | inhibition at 10 µM [5] | inhibition at 10 µM [6]
1 | CSc1nc2c3c(n[nH]c3n1)CCN2Cc1ccccc1 [Compound 1, 6-benzyl-4-(methylthio)-2,6,7,8-tetrahydro-1,2,3,5,6-pentaazaacenaphthylene] | < 50% | < 50% | < 50% | < 50% | < 50% | < 50%
2 | CS(=O)(=O)c1nc2c3c(n[nH]c3n1)CCN2Cc1ccccc1 [Compound 2, 6-benzyl-4-(methylsulfonyl)-2,6,7,8-tetrahydro-1,2,3,5,6-pentaazaacenaphthylene] | < 50% | < 50% | < 50% | < 50% | < 50% | < 50%
3 | FC(F)(F)c1ccnc(N2CCN(c3nc4c5c(n[nH]c5n3)CCN4Cc3ccccc3)CC2)n1 [Compound 4, 6-benzyl-4-{4-[4-(trifluoromethyl)pyrimidin-2-yl]piperazin-1-yl}-2,6,7,8-tetrahydro-1,2,3,5,6-pentaazaacenaphthylene] | 50 to 79% | < 50% | > 79% | > 79% | > 79% | < 50%
4 | Fc1ccccc1CN1CCN(c2nc3c4c(n[nH]c4n2)CCN3Cc2ccccc2)CC1 [Compound 5, 6-benzyl-4-[4-(2-fluorobenzyl)piperazin-1-yl]-2,6,7,8-tetrahydro-1,2,3,5,6-pentaazaacenaphthylene] | < 50% | 50 to 79% | > 79% | < 50% | > 79% | < 50%
5 | CN(Cc1cccc2ccccc12)c1nc2c3c(n[nH]c3n1)CCN2Cc1ccccc1 [Compound 6, 6-benzyl-N-methyl-N-(1-naphthylmethyl)-2,6,7,8-tetrahydro-1,2,3,5,6-pentaazaacenaphthylen-4-amine] | < 50% | < 50% | < 50% | < 50% | < 50% | < 50%
6 | c1ccc(CN2CCc3n[nH]c4nc(NCc5cccc6ccccc56)nc2c34)cc1 [Compound 7, 6-benzyl-N-(1-naphthylmethyl)-2,6,7,8-tetrahydro-1,2,3,5,6-pentaazaacenaphthylen-4-amine] | < 50% | > 79% | > 79% | < 50% | > 79% | < 50%
7 | N#Cc1cccnc1N1CCN(c2nc3c4c(n[nH]c4n2)CCN3Cc2ccccc2)CC1 [Compound 8, 2-[4-(6-benzyl-2,6,7,8-tetrahydro-1,2,3,5,6-pentaazaacenaphthylen-4-yl)piperazin-1-yl]nicotinonitrile] | < 50% | < 50% | < 50% | < 50% | < 50% | < 50%
8 | COc1cccc(N2CCN(c3nc4c5c(n[nH]c5n3)CCN4Cc3ccccc3)CC2)c1 [Compound 9, 6-benzyl-4-[4-(3-methoxyphenyl)piperazin-1-yl]-2,6,7,8-tetrahydro-1,2,3,5,6-pentaazaacenaphthylene] | < 50% | < 50% | > 79% | < 50% | > 79% | < 50%
9 | c1ccc(CN2CCc3n[nH]c4nc(NCc5cccnc5)nc2c34)cc1 [Compound 10, 6-benzyl-N-(pyridin-3-ylmethyl)-2,6,7,8-tetrahydro-1,2,3,5,6-pentaazaacenaphthylen-4-amine] | < 50% | < 50% | < 50% | < 50% | < 50% | < 50%
10 | COc1cc(CCNc2nc3c4c(n[nH]c4n2)CCN3Cc2ccccc2)cc(OC)c1 [Compound 11, 6-benzyl-N-[2-(3,5-dimethoxyphenyl)ethyl]-2,6,7,8-tetrahydro-1,2,3,5,6-pentaazaacenaphthylen-4-amine] | 50 to 79% | > 79% | < 50% | > 79% | < 50% | 50 to 79%
11 | Clc1cccc(CCNc2nc3c4c(n[nH]c4n2)CCN3Cc2ccccc2)c1 [Compound 12, 6-benzyl-N-[2-(3-chlorophenyl)ethyl]-2,6,7,8-tetrahydro-1,2,3,5,6-pentaazaacenaphthylen-4-amine] | 50 to 79% | 50 to 79% | < 50% | 50 to 79% | < 50% | < 50%
12 | c1ccc(CN2CCc3n[nH]c4nc(N5CCN(c6ncccn6)CC5)nc2c34)cc1 [Compound 13, 6-benzyl-4-(4-pyrimidin-2-ylpiperazin-1-yl)-2,6,7,8-tetrahydro-1,2,3,5,6-pentaazaacenaphthylene] | < 50% | < 50% | < 50% | < 50% | < 50% | < 50%
13 | COc1ccc(CCN(C)c2nc3c4c(n[nH]c4n2)CCN3Cc2ccccc2)cc1OC [Compound 14, 6-benzyl-N-[2-(3,4-dimethoxyphenyl)ethyl]-N-methyl-2,6,7,8-tetrahydro-1,2,3,5,6-pentaazaacenaphthylen-4-amine] | < 50% | < 50% | < 50% | < 50% | < 50% | < 50%
14 | c1ccc(CN2CCc3n[nH]c4nc(N5CCN(Cc6ccc7c(c6)OCO7)CC5)nc2c34)cc1 [Compound 15, 4-[4-(1,3-benzodioxol-5-ylmethyl)piperazin-1-yl]-6-benzyl-2,6,7,8-tetrahydro-1,2,3,5,6-pentaazaacenaphthylene] | < 50% | < 50% | < 50% | < 50% | < 50% | < 50%
15 | Clc1cccc(Oc2ccccc2)c1CNc1nc2c3c(n[nH]c3n1)CCN2Cc1ccccc1 [Compound 16, 6-benzyl-N-(2-chloro-6-phenoxybenzyl)-2,6,7,8-tetrahydro-1,2,3,5,6-pentaazaacenaphthylen-4-amine] | < 50% | < 50% | < 50% | 50 to 79% | 50 to 79% | < 50%
16 | c1ccc(CN2CCc3n[nH]c4nc(NC5Cc6ccccc6C5)nc2c34)cc1 [Compound 17, 6-benzyl-N-(2,3-dihydro-1H-inden-2-yl)-2,6,7,8-tetrahydro-1,2,3,5,6-pentaazaacenaphthylen-4-amine] | 50 to 79% | 50 to 79% | < 50% | 50 to 79% | < 50% | 50 to 79%
17 | COC[C@H](C)Nc1nc2c3c(n[nH]c3n1)CCN2Cc1ccccc1 [Compound 18, 6-benzyl-N-[(1S)-2-methoxy-1-methylethyl]-2,6,7,8-tetrahydro-1,2,3,5,6-pentaazaacenaphthylen-4-amine] | < 50% | < 50% | < 50% | < 50% | < 50% | < 50%
18 | c1ccc(CN2CCc3n[nH]c4nc(N5CCc6ccccc6C5)nc2c34)cc1 [Compound 19, 6-benzyl-4-(3,4-dihydroisoquinolin-2(1H)-yl)-2,6,7,8-tetrahydro-1,2,3,5,6-pentaazaacenaphthylene] | < 50% | < 50% | 50 to 79% | < 50% | 50 to 79% | < 50%
19 | COc1cc(OC)nc(CN2CCN(c3nc4c5c(n[nH]c5n3)CCN4Cc3ccccc3)CC2)n1 [Compound 20, 6-benzyl-4-{4-[(4,6-dimethoxypyrimidin-2-yl)methyl]piperazin-1-yl}-2,6,7,8-tetrahydro-1,2,3,5,6-pentaazaacenaphthylene] | < 50% | < 50% | < 50% | < 50% | < 50% | < 50%
20 | Cn1c(CNc2nc3c4c(n[nH]c4n2)CCN3Cc2ccccc2)nc2ccccc21 [Compound 21, 6-benzyl-N-[(1-methyl-1H-benzimidazol-2-yl)methyl]-2,6,7,8-tetrahydro-1,2,3,5,6-pentaazaacenaphthylen-4-amine] | < 50% | 50 to 79% | < 50% | < 50% | < 50% | < 50%
21 | Fc1ccccc1CCNc1nc2c3c(n[nH]c3n1)CCN2Cc1ccccc1 [Compound 22, 6-benzyl-N-[2-(2-fluorophenyl)ethyl]-2,6,7,8-tetrahydro-1,2,3,5,6-pentaazaacenaphthylen-4-amine] | < 50% | < 50% | < 50% | < 50% | < 50% | < 50%
